The values that follow come from paper PMC10353187, “Discovery of a new potent oxindole multi-kinase inhibitor among a series of designed 3-alkenyl-oxindoles with ancillary carbonic anhydrase inhibitory activity as antiproliferative agents” (BMC Chemistry, 2023).

Structures are written as SMILES. pIC50: −log10 of the molar value.

Assay [1] has as its system HCC-2998. The assay can be described thus: NCI-60 single-dose antiproliferative assay (SRB). In kind it is cell-based. To be noted: Homo sapiens; 10 μM single dose; HCC-2998, Colon cancer; read-out: Cell Growth inhibition Percent. A digest of the protocol: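 Single 10 μM dose, 48 h at 37 °C in RPMI 1640 with 5% FBS, cells seeded 24 h before dosing. TCA fixation, sulforhodamine B staining, absorbance 515 nm; percent growth derived against time-zero and untreated control plates, triplicate wells.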

Assay [2] addresses T1, FGFR 1 (Homo sapiens, UniProt P11362).
T1 construct: purchased Thermo Fischer Scientific (SelectScreen service)
As to the kind of experiment: Z'-LYTE kinase inhibition assay (SelectScreen). In kind it is biochemical. Here is the method:
(§1) To test the potential kinase inhibitory activity of compound 15c, initial single dose testing was performed at 10 μM on a panel of kinases and their inhibition % were determined.
(§2) […]. Additional file 1; S3: In vitro biological activity).
(§3) The FGFR, VEGFR-2 and RET tyrosine kinase assays were carried out at Thermo Fischer Scientific, USA (www.thermofischer.com/selectscreen). (For further details see Additional file 1; S3: In vitro biological activity).
(§4) The FGFR, VEGFR-2 and RET tyrosine kinase assays were performed at Thermo Fischer Scientific, USA (www.thermofischer.com/selectscreen). The assay was performed to evaluate the inhibitory activity of the designed compound applying the Z'-LYTE biochemical assay employing a fluorescence-based, coupled-enzyme format based on the differential sensitivity of phosphorylate and non-phosphorylate peptides to the proteolytic cleavage. The peptide substrate is characterized with two fluorophores, one at each end, that make up a FRET pair ^9.
(§5) The Z´-LYTE biochemical assay employs a fluorescence-based, coupled-enzyme format and is based on the differential sensitivity of phosphorylated and non-phosphorylated peptides to proteolytic cleavage. The peptide substrate is labeled with two fluorophores—one at each end—that make up a FRET pair. In the primary reaction, the kinase transfers the gamma-phosphate of ATP to a single tyrosine, serine or threonine residue in a synthetic FRET-peptide. In the secondary reaction, a site-specific protease recognizes and cleaves non-phosphorylated FRET-peptides. Phosphorylation of FRET-peptides suppresses cleavage by the Development Reagent. Cleavage disrupts FRET between the donor (i.e., coumarin) and acceptor (i.e., fluorescein) fluorophores on the FRET-peptide, whereas uncleaved, phosphorylated FRET-peptides maintain FRET. A ratiometric method, which calculates the ratio (the Emission Ratio) of donor emission to acceptor emission after excitation of the donor fluorophore at 400 nm, is used to quantitate reaction progress, as shown in the equation below. A significant benefit of this ratiometric method for quantitating reaction progress is the elimination of wellto-well variations in FRET-peptide concentration and signal intensities. […]. Both cleaved and uncleaved FRET-peptides contribute to the fluorescence signals and therefore to the Emission Ratio. The extent of phosphorylation of the FRET-peptide can be calculated from the Emission Ratio. The Emission Ratio will remain low if the FRET-peptide is phosphorylated (i.e., no kinase inhibition) and will be high if the FRET-peptide is non-phosphorylated (i.e., kinase inhibition).
(§6) Test Compounds the Test Compounds are screened in 1% DMSO (final) in the well. For 10 point titrations, 3-fold serial dilutions are conducted from the starting concentration of the customer’s choosing. Peptide/Kinase Mixtures All Peptide/Kinase Mixtures are diluted to a 2X working concentration in the appropriate Kinase Buffer (see section Kinase Specific Assay Conditions for a complete description). ATP Solution All ATP Solutions are diluted to a 4X working concentration in Kinase Buffer (50 mM HEPES pH 7.5, 0.01% BRIJ-35, 10 mM MgCl2, 1 mM EGTA). ATP Km apparent is previously determined using a Z´-LYTE assay.

The target of assay [3] is T2, RET (Homo sapiens, UniProt P07949).
T2 construct: purchased Thermo Fischer Scientific (SelectScreen service)
T2 sequence (P07949 29-1114): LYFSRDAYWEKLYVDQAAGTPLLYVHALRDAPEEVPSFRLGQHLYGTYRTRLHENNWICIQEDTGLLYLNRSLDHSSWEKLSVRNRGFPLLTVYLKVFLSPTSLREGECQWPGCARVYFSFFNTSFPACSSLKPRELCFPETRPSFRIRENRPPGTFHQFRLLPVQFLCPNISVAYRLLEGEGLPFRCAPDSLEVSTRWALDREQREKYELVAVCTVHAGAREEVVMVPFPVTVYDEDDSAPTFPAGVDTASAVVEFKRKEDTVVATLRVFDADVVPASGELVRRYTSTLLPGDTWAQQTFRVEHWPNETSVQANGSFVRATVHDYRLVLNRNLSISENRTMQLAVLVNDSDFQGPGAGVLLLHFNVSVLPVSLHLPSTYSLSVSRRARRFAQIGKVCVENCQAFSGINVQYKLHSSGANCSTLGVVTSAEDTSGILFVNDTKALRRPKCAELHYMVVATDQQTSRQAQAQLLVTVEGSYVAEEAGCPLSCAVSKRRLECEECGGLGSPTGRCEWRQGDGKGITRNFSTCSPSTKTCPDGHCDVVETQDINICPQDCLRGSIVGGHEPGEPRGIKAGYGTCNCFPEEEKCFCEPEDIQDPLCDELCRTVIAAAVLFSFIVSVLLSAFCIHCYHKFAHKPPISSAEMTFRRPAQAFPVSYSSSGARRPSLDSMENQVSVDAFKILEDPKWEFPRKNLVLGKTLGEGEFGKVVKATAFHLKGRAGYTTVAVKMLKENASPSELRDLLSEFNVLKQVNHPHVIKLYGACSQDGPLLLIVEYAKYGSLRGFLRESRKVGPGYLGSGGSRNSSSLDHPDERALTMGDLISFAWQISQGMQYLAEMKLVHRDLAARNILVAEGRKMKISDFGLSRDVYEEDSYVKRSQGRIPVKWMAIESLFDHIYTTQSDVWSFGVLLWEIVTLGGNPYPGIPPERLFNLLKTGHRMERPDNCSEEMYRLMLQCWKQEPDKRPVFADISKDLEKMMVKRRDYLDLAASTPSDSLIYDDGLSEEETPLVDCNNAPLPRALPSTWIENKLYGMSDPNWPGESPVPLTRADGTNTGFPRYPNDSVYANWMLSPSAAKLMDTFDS
The assay can be described thus: Z'-LYTE kinase inhibition assay (SelectScreen). In kind it is biochemical. Here is the method:
as §1, §2, §3, §4, §5, §6

Assay [4] deals with T3, VEGFR 2(KDR) (Homo sapiens, UniProt P35968).
T3 construct: purchased Thermo Fischer Scientific (SelectScreen service)
T3 sequence (P35968 20-1356): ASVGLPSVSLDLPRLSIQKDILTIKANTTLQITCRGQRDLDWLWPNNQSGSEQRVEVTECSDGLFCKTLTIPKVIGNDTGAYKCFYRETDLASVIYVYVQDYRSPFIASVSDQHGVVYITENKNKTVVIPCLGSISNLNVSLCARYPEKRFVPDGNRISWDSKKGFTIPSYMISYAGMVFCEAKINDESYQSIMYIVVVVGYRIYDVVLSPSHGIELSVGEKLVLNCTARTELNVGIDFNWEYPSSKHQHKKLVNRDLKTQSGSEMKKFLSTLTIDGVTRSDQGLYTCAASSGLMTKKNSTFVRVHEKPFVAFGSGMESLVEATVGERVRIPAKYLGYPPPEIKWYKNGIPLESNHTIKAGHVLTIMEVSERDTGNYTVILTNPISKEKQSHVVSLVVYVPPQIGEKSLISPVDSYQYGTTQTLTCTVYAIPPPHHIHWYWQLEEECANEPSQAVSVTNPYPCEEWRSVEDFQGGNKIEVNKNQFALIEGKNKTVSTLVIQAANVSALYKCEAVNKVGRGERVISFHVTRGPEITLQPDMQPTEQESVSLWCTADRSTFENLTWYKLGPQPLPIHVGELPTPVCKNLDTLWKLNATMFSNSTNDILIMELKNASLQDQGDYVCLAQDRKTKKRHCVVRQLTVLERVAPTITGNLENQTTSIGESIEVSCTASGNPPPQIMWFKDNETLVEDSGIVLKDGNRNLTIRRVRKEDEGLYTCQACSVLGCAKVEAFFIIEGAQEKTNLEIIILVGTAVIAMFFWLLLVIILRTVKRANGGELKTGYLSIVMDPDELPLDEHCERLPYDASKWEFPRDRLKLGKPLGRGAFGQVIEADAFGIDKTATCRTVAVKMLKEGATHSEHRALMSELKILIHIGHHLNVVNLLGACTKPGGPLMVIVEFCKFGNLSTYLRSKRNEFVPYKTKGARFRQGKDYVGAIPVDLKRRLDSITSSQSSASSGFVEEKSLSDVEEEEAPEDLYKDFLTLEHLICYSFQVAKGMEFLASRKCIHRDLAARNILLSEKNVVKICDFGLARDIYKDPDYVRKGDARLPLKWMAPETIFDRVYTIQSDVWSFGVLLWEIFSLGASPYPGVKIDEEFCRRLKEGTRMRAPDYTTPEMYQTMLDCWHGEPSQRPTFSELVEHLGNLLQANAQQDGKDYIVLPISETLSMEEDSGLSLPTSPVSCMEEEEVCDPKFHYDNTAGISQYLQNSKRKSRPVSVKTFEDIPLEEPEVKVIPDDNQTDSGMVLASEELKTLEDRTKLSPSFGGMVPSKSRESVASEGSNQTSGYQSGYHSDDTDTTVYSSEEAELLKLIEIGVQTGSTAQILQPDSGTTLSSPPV
As to the kind of experiment: Z'-LYTE kinase inhibition assay (SelectScreen). In kind it is biochemical. As to the method: as §1, §2, §3, §4, §5, §6

Setting [5] is: five concentrations 10 nM–100 μM.

T1 sequence (P11362 22-822): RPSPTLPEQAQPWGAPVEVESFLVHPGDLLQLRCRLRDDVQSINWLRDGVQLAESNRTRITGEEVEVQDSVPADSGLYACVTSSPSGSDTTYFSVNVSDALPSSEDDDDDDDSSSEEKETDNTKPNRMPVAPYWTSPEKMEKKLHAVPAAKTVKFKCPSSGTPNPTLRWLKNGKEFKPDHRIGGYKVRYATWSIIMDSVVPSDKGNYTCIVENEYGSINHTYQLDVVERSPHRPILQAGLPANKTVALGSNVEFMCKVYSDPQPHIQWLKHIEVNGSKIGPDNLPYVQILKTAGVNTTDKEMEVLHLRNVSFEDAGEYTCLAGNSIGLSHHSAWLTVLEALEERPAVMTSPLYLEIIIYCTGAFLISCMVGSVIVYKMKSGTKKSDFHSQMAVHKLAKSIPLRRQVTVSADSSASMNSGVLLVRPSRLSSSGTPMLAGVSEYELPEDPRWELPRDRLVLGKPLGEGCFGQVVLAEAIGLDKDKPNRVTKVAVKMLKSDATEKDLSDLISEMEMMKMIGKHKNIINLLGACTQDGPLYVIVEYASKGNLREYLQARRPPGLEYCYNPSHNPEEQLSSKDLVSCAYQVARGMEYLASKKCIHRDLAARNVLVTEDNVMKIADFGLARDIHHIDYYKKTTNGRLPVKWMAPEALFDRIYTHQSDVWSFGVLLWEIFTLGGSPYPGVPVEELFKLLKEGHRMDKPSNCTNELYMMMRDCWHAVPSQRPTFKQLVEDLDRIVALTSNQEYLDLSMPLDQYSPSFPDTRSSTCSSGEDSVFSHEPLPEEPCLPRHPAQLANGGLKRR

Usually inhibition stands for the share of the control response that was lost under treatment. By pIC50 is commonly meant the negative decadic logarithm of the IC50, by convention in mol/L. For `O=C(Nc1ccc(NC=C2C(=O)Nc3ccccc32)cc1)Nc1nccs1` [Compound 15c, 1-{4-[((2-Oxoindolin-3-ylidene)methyl)amino]phenyl}-3-(thiazol-2-yl)urea], the inhibition at 10 µM in assay [1] turned out to be 26.1%; in assay [2] (10 uM), 74%; in assay [3] (10 uM), 74%; in assay [4] (10 uM), 73%. The pIC50 in assay [2] (setting [5]) was 5.89; in assay [3] (setting [5]), 5.93; in assay [4] (setting [5]), 6.93.
